Patent US4994440A, “Method for the treatment of renal cell carcinoma” (priority 1989, dated 1991)

Tested on: metastatic renal cell carcinoma
Experiment: Treatment of patients with metastatic renal cell carcinoma by 1 hour infusion of the liposomal composition
Assay type: in vivo, man
Conditions: a patient with renal cell carcinoma with multiple small pulmonary metastases
Protocol: 12 patients diagnosed as having metastatic renal cell carcinoma were given the liposomal composition in accordance with Example 2 at various dosage levels of the active ingredient by 1 hour infusion in 50 ml of isotonic saline through a safety filter twice a week for a total of 8 doses.

CCCCCCCCCCCCCCCC(=O)OCC(COP(=O)([O-])OCCNC(=O)C(C)NC(=O)CCC(NC(=O)C(C)NC(=O)C(C)OC1C(O)C(CO)OC(O)C1NC(C)=O)C(N)=O)OC(=O)CCCCCCCCCCCCCCC.[Na+] [N-acetylmuramyl-L-alanyl-D-isoglutaminyl-L-alanine-2-(1,2-dipalmitoyl-sn-glycero-3-hydroxyphosphoryloxy)ethylamide monosodium salt]
size of lesions: reduce the size of lesions
